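96-well plates; 48 h exposure; 5 concentrations. Endpoints by linear interpolation between flanking doses. Not reached: highest tested concentration assigned. TGI is the concentration that stops growth completely.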
What was measured:
Assay in all cases: NCI anticancer screen, dose series, 48 h
[1] = test system: OVCAR-3 ovarian
[2] = test system: OVCAR-8 ovarian
[3] = test system: UO-31 renal
[4] = test system: SK-OV-3 ovarian
[5] = test system: OVCAR-5 ovarian
[6] = test system: RPMI-8226 leukemia
[7] = test system: SNB-19 CNS
[8] = test system: SR leukemia
[9] = test system: UACC-257 melanoma
[10] = test system: SF-268 CNS
[11] = test system: SK-MEL-28 melanoma
[12] = test system: MALME-3M melanoma
[13] = test system: TK-10 renal
[14] = test system: UACC-62 melanoma
[15] = test system: COLO 205 colon
[16] = test system: SW-620 colon
[17] = test system: MOLT-4 leukemia
[18] = test system: K-562 leukemia
[19] = test system: M14 melanoma
[20] = test system: HT29 colon

Structure (SMILES) | TGI [1] [µM] | TGI [2] [µM] | TGI [3] [µM] | TGI [4] [µM] | TGI [5] [µM] | TGI [6] [µM] | TGI [7] [µM] | TGI [8] [µM] | TGI [9] [µM] | TGI [10] [µM] | TGI [11] [µM] | TGI [12] [µM] | TGI [13] [µM] | TGI [14] [µM] | TGI [15] [µM] | TGI [16] [µM] | TGI [17] [µM] | TGI [18] [µM] | TGI [19] [µM] | TGI [20] [µM]
CCC(C(=O)c1ccc(OC)c(OC)c1)N(C(=O)C(F)(F)F)C(C)c1ccccc1 (stereo not given) | > 100 | > 100 | > 100 | > 100 | > 100 | > 100 | > 100 | > 100 | > 100 | > 100 | > 100 | > 100 | > 100 | > 100 | > 100 | > 100 | > 100 | > 100 | > 100 | > 100
O=[N+]([O-])c1ccc(-c2ccc(-c3csc(Nc4ccccn4)n3)o2)cc1 | > 100 | > 100 | > 100 | > 100 | > 100 | > 100 | 77.4 | > 100 | > 100 | > 100 | > 100 | > 100 | 56.1 | > 100 | > 100 | > 100 | > 100 | > 100 | > 100 | > 100
O=C1C(Cl)N(c2ccccc2[N+](=O)[O-])C1c1c[nH]c2ccccc12 (stereo not given) | > 100 | > 100 | > 100 | > 100 | 54.8 | > 100 | > 100 | > 100 | > 100 | > 100 | > 100 | > 100 | > 100 | > 100 | > 100 | > 100 | > 100 | > 100 | > 100 | > 100
